Key:
[1] = target: T1, human SCD1 (Homo sapiens, UniProt O00767); assay: Growth inhibition of yeast strain expressing human SCD1 as sole desaturase (OLE1 deleted), OD600 readout; type: cell-based; details: yeast strain expressing human SCD1 as sole desaturase; growth (OD600) after 40 h at 30° C.; read-out: SCD1 IC50
T1 construct: expressed in transfected cells; host or cells: yeast strain with OLE1 deleted, plasmid-borne human SCD1 (selected in SD-Ura)
T1 sequence (O00767 1-359): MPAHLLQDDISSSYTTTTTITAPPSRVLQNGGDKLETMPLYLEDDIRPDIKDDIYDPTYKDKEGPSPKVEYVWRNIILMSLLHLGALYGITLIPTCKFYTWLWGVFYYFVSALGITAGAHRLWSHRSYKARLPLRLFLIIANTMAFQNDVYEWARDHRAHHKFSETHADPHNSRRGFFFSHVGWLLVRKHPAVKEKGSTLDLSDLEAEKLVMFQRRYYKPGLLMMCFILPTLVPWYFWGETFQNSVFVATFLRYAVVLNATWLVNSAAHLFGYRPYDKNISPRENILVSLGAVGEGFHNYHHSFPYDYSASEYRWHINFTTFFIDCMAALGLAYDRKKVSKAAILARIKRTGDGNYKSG

[2] = target: T2, human SCD5 (Homo sapiens, UniProt Q86SK9); assay: Growth inhibition of yeast strain expressing human SCD5 as sole desaturase (OLE1 deleted), OD600 readout; type: cell-based; details: yeast strain expressing human SCD5 as sole desaturase; growth (OD600) after 40 h at 30° C.; read-out: SCD5 IC50
T2 construct: expressed in transfected cells; host or cells: yeast strain with OLE1 deleted, plasmid-borne human SCD5 (selected in SD-Ura)
T2 sequence (Q86SK9 1-330): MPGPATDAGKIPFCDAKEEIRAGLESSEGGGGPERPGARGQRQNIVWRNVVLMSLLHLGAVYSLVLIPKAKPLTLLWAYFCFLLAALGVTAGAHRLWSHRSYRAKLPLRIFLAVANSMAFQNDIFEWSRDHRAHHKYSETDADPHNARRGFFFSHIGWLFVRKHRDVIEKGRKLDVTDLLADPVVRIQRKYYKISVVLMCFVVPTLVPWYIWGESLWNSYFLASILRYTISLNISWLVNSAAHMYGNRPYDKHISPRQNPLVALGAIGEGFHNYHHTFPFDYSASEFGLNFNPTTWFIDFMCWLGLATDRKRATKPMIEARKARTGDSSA

Row | SMILES | IC50 [1] [µM] | IC50 [2] [nM]
1 | O=C(O)c1ccc(C(=O)Nc2ccc(Cc3cccc(Cl)c3)cn2)nn1 [Compound 451] | 1.4 | > 45000
2 | Cn1cc(C(=O)Nc2ccc(COc3ccc(F)cc3)cn2)ccc1=O [Compound 452] | > 45 | > 45000
3 | Cn1cc(C(=O)Nc2ccc(Cc3cncc(F)c3)cn2)ccc1=O [Compound 453] | 0.18 | > 45000
4 | COC(=O)c1ccc(C(=O)Nc2ccc(Cc3cccc(Cl)c3)cn2)nn1 [Compound 454] | 1.93 | > 45000
5 | COc1ccc(Cn2c(C(=O)Nc3ccc(Cc4cccc(F)c4)cn3)cc(=O)n2C)cc1 [Compound 455] | > 45 | > 45000
6 | COc1ccc(Cn2c(C(=O)Nc3ccc(Cc4cccc(Cl)c4)cn3)cc(=O)n2C)cc1 [Compound 456] | > 45 | > 45000
7 | Cn1cc(-c2ccc(NC(=O)Cc3cccc(F)c3)nc2)ccc1=O [Compound 457] | > 45 | > 45000
8 | CN1C(=O)OC[C@H]1C(=O)Nc1ccc(Cc2cccc(F)c2)cn1 [Compound 458] | > 45 | > 45000
9 | Cn1c(C(=O)Nc2ccc(Cc3cccc(F)c3)cn2)cc(=O)n1C [Compound 459] | > 45 | > 45000
10 | Cn1c(C(=O)Nc2ccc(Cc3cccc(Cl)c3)cn2)cc(=O)n1C [Compound 460] | > 45 | > 45000
11 | Cn1cc(C(=O)Nc2nnc(Cc3cccc(F)c3)s2)ccc1=O [Compound 461] | > 45 | > 45000
12 | Cn1cc(C(=O)Nc2nnc(Cc3cccc(Cl)c3)s2)ccc1=O [Compound 462] | > 45 | > 45000
13 | Cn1cc(C(=O)N2CCC(Oc3cccc(Cl)c3)CC2)ccc1=O [Compound 464] | > 45 | > 45000
14 | Cn1cc(C(=O)N[C@H]2CC[C@@H](Cc3cccc(Cl)c3)CC2)ccc1=O [Compound 465] | > 45 | > 45000
15 | Cn1cc(C(=O)NC2CCC(Oc3cccc(Cl)c3)CC2)ccc1=O (stereo not drawn) [Compound 466] | > 45 | > 45000
16 | Cn1cc(-c2ccc(C(=O)NCc3cccc(F)c3)nc2)ccc1=O [Compound 467] | > 45 | > 45000
17 | CN1N=C(C(=O)Nc2ccc(CC3CC3)cn2)CCC1=O [Compound 468] | > 45 | > 45000
18 | Cc1ccnc(Cc2ccc(NC(=O)C3=NN(C)C(=O)CC3)nc2)c1 [Compound 469] | > 45 | > 45000
19 | CN1N=C(C(=O)Nc2ccc(Cc3ccc(C#N)c(F)c3)cn2)CCC1=O [Compound 470] | > 45 | > 45000
20 | CN1N=C(C(=O)Nc2cc(Cc3cccc(Cl)c3)cnc2N)CCC1=O [Compound 471] | > 45 | > 45000
21 | CC(O)C1CN(C(=O)Nc2ccc(Cc3cccc(Cl)c3)cn2)C1 (stereo not drawn) [Compound 472] | > 45 | > 45000
22 | Cn1cc(C(=O)Nc2nnc(Cc3ccc(F)cc3)s2)ccc1=O [Compound 473] | > 45 | > 45000
23 | Cn1nc(C(=O)Nc2ccc(CC3CCCCC3)cn2)cc1O [Compound 476] | > 45 | 7600
24 | CN1N=C(C(=O)Nc2ccc(C=C3CCCCC3)cn2)CCC1=O [Compound 477] | > 45 | 18000
25 | N#Cc1ccc(C(=O)Nc2ccc(Cc3cc(F)cc(F)c3)cn2)cn1 [Compound 478] | 2.1 | 19
26 | COCc1ncc(C(=O)Nc2ccc(Cc3cccc(Cl)c3)cn2)cn1 [Compound 479] | 12 | 680
27 | CN1CC=C(C(=O)Nc2ccc(Cc3cccc(F)c3)cn2)NC1=O [Compound 480] | 3.5 | 230

Row | SMILES | IC50 [1] [µM] | IC50 [2] [nM]
28 | O=C(Nc1ccc(Cc2cccc(F)c2)cn1)c1cncc(CO)c1 [Compound 481] | 0.12 | 27
29 | N#Cc1ccc(C(=O)Nc2ccc(CNc3cccc(Cl)c3)cn2)cn1 [Compound 482] | 4.8 | 620
30 | O=C(Nc1ccc(Cc2cccc(Cl)c2)cn1)c1cncc(CO)c1 [Compound 483] | 0.075 | 17
31 | Cc1ccc(C(=O)Nc2ccc(Cc3cc(F)cc(F)c3)cn2)nn1 [Compound 484] | 0.53 | 14
32 | Cc1nccc(C(=O)Nc2ccc(Cc3ccc(F)c(F)c3)cn2)n1 [Compound 485] | 0.21 | 21
33 | COc1nccc(C(=O)Nc2ccc(Cc3ccc(F)c(F)c3)cn2)n1 [Compound 486] | 7.8 | 110
34 | Cn1cc(NC(=O)c2ccc(COc3cccc(Cl)c3)cn2)ccc1=O [Compound 487] | 4.6 | 310
35 | Cn1cc(NC(=O)c2ccc(COc3ccc(F)c(Cl)c3)cn2)ccc1=O [Compound 488] | 5.8 | 109
36 | CCn1nc(C(=O)Nc2ccc(Cc3cccc(Cl)c3)cn2)cc1O [Compound 489] | > 45 | 544
37 | O=C(Nc1ccc(Cc2cccc(F)c2)cn1)c1ncc(Br)cn1 [Compound 490] | > 45 | 2200
38 | CC(C)(C#N)c1ccc(C(=O)Nc2ccc(Cc3cccc(Cl)c3)cn2)cn1 [Compound 491] | 25 | 6500
39 | N#Cc1ccc(C(=O)Nc2ccc(COc3cccc(Cl)c3)cn2)cn1 [Compound 492] | > 45 | 5800
40 | N#Cc1ccc(C(=O)Nc2ccc(Cc3cc(F)cc(F)c3)cn2)nc1 [Compound 493] | 32 | 43
41 | O=C(Nc1ccc(Cc2cccc(Cl)c2)cn1)c1cnc(CO)nc1 [Compound 494] | 0.01 | 10
42 | Cn1nc(NC(=O)c2ccc(Cc3ccc(F)cc3)cn2)ccc1=O [Compound 495] | 0.56 | 15
43 | Cn1cc(NC(=O)c2ccc(Cc3ccc(F)cc3)cn2)ccc1=O [Compound 496] | 0.222 | 10
44 | O=C(Nc1ccc(Cc2cccc(F)c2)cn1)c1cc(CO)ccn1 [Compound 497] | 0.01 | 10
45 | N#Cc1ccc(C(=O)Nc2ccc(CNc3cccc(Cl)c3)cn2)nc1 [Compound 498] | 2.7 | 5200
46 | C=C(c1ccc(C(=O)Nc2ccc(Cc3cccc(Cl)c3)cn2)cn1)C(F)(F)F [Compound 499] | 10 | 820
47 | N#Cc1cnc(C(=O)Nc2ccc(Cc3cccc(F)c3)cn2)nc1 [Compound 500] | > 45 | 10
48 | C#CCn1nc(C(=O)Nc2ccc(Cc3cccc(Cl)c3)cn2)ccc1=O [Compound 501] | 0.01 | 10
49 | CC(=O)c1ccc(C(=O)Nc2ccc(Cc3cccc(Cl)c3)cn2)nc1 [Compound 502] | > 45 | 10
50 | O=C(Nc1ccc(Cc2ccc(F)c(F)c2)cn1)c1cncc(CO)c1 [Compound 503] | 0.012 | 10
51 | O=C(Nc1ccc(Cc2cccc(F)c2)cn1)c1ncc(F)cn1 [Compound 504] | 2.8 | 260
52 | O=C(Nc1ccc(Cc2cccc(F)c2)cn1)c1ccnc(C2CC2)n1 [Compound 506] | 1.5 | 14
53 | CC(=O)c1ccc(C(=O)Nc2ccc(Cc3ccc(F)c(F)c3)cn2)nc1 [Compound 507] | 0.98 | 1200
54 | Cn1c(C(=O)Nc2ccc(Cc3ccc(F)c(F)c3)cn2)coc1=O [Compound 508] | 2.6 | 450

From patent publication US20230078764A1 (Yumanity Therapeutics, Inc., priority 2019, published 2023)
